In US9309263B2, “Fused multi-cyclic sulfone compounds as inhibitors of beta-secretase and methods of use thereof” (AMGEN INC., priority 2013, dated 2016):
Like-named read-outs stand apart in the source and are kept apart here.

Legend:
[1] = target: Cathepsin D (Cat D) (Homo sapiens, UniProt P07339); assay: In vitro enzymatic Cathepsin D (Cat D) FRET assay; format: biochemical
Summary of the method: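 Recombinant CHO-expressed enzyme (9 nM) pre-incubated 1 h with serially diluted inhibitor in 0.05 M citrate pH 3.5, 10% DMSO final, 5 mM CHAPS. Reaction started with 20 nM FRET peptide substrate, run 1 h, stopped with Tris to neutral pH; fluorescence read at ex 500/em 580 nm.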

[2] = test system: Aβ 40 in conditioned medium of cells stably expressing Amyloid Precursor Protein (APP); assay: In vitro BACE cell-based assay (Aβ 40 sandwich ELISA); conditions: Homo sapiens, HEK293
Summary of the method: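 APP-expressing cells, 24 h pre-culture in DMEM/10% FBS, treated 24 h with 10-point compound dilutions from 100 or 10 μM top, 0.1% DMSO final. Secreted Aβ40 quantified by sandwich ELISA (pAb40 capture, biotinylated 6E10 detection, europium TRF); IC50 from percent inhibition versus concentration.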

[3] = target: Beta Secretase enzyme (BACE) (Homo sapiens, UniProt P56817); assay: In vitro enzymatic BACE FRET assay; format: biochemical; conditions: read-out: BACE1 FRET assay IC50
Beta Secretase enzyme (BACE), sequence (P56817 46-501): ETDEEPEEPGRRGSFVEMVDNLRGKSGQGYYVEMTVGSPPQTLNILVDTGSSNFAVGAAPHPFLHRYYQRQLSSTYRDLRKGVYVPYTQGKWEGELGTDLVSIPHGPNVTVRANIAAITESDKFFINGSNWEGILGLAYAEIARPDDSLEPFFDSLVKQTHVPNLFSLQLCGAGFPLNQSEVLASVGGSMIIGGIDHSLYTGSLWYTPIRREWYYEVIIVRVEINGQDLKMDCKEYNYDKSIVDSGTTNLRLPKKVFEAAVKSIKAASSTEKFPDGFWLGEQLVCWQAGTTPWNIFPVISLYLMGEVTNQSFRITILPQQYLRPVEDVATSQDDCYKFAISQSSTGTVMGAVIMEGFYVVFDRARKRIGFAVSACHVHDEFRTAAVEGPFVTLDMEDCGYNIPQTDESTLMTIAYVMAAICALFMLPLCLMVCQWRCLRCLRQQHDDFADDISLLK
Summary of the method: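 Enzyme (0.2 nM) pre-incubated 1 h with serially diluted inhibitors in 0.05 M acetate pH 4.2, 10% DMSO, 100 uM genapol. Reaction started with 50 nM fluorophore/quencher peptide FRET substrate, run 1 h, stopped with Tris to neutral pH. Fluorescence read at excitation 488 nm, […].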

[4] = Cathepsin D FRET assay, read-out: CatD IC50
[5] = average IC50, HEK cell assay, Aβ 40 readout
[6] = average IC50, in vitro enzymatic BACE FRET assay
[7] = text summary referring to data in Table 2

Cathepsin D (Cat D), sequence (P07339 65-412, species assumed): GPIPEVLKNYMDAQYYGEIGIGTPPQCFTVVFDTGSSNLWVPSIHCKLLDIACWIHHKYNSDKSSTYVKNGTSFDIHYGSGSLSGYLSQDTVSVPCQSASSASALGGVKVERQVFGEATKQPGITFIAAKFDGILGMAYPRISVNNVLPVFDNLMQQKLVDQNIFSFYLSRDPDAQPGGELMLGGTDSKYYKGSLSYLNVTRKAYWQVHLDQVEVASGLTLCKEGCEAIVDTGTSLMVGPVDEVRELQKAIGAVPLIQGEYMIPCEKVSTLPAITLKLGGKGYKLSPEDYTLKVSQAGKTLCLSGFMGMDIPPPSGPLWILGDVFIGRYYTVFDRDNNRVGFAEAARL

SMILES	IC50 ([1]; read-out: CatD IC50) [µM]	IC50 ([2]; HEK cell, average IC50) [µM]	IC50 ([3]; average IC50) [µM]	IC50 [1, 4] [µM]	IC50 [2, 5] [µM]	IC50 [3, 6] [µM]	IC50 [1, 7] [µM]	IC50 ([2]; HEK cells, average IC50) [µM]
CC1(C)C(N)=N[C@]2(C)c3cc(Nc4nccc5cc(C#N)cnc45)ccc3CCC[C@@H]2S1(=O)=O [Example 33, 8-(((4aS,11bR)-2-amino-3,3,11b-trimethyl-4,4-dioxido-3,4a,5,6,7,11b-hexahydrobenzo[3,4]cyclohepta[1,2-b][1,4]thiazin-10-yl)amino)-1,7-naphthyridine-3-carbonitrile]	286	0.097	0.029					
COc1cnc2c(Nc3ccc4c(c3)[C@@]3(C)N=C(N)C(C)(C)S(=O)(=O)[C@@H]3CCC4)nccc2n1 [Example 48, (4aR,11bR)-N^~10^~-(2-methoxypyrido[3,4-b]pyrazin-5-yl)-3,3,11b-trimethyl-3,4a,5,6,7,11b-hexahydrobenzo[3,4]cyclohepta[1,2-b][1,4]thiazine-2,10-diamine 4,4-dioxide]	393	0.041	0.041					
CC#CCOc1cnc(C(=O)Nc2ccc3c(c2)[C@@]2(C)N=C(N)C(C)(C)S(=O)(=O)[C@@H]2CCC3)cn1 [Example 50, N-((4aR,11bR)-2-amino-3,3,11b-trimethyl-4,4-dioxido-3,4a,5,6,7,11b-hexahydrobenzo[3,4]cyclohepta[1,2-b][1,4]thiazin-10-yl)-5-(2-butyn-1-yloxy)-2-pyrazinecarboxamide]	120	0.0002	0.0007					
Cc1cc(C#N)cnc1C(=O)Nc1ccc2c(c1)[C@@]1(C)N=C(N)C(C)(C)S(=O)(=O)[C@@H]1CC(C)(C)O2 [Example 99, N-((4aR,11bR)-2-amino-3,3,6,6,11b-pentamethyl-4,4-dioxido-4a,5,6,11b-tetrahydro-3H-[1]benzoxepino[4,5-b][1,4]thiazin-10-yl)-5-cyano-3-methyl-2-pyridinecarboxamide]				> 400	0.002	0.008		
COc1cnc2c(Nc3ccc4c(c3)[C@@]3(C)N=C(N)C(C)(C)S(=O)(=O)[C@@H]3C[C@H](C)O4)ncc(F)c2c1 [Example 52, (4aR,6S,11bR)-N^~10^~-(5-fluoro-3-methoxy-1,7-naphthyridin-8-yl)-3,3,6,11b-tetramethyl-4a,5,6,11b-tetrahydro-3H-[1]benzoxepino[4,5-b][1,4]thiazine-2,10-diamine 4,4-dioxide]	174	0.022	0.014					
Cc1cc(Cl)cnc1C(=O)Nc1ccc2c(c1)[C@@]1(C)N=C(N)C(C)(C)S(=O)(=O)[C@@H]1CCC2 [Example 11, N-((4aR,11bR)-2-amino-3,3,11b-trimethyl-4,4-dioxido-3,4a,5,6,7,11b-hexahydrobenzo[3,4]cyclohepta[1,2-b][1,4]thiazin-10-yl)-5-chloro-3-methyl-2-pyridinecarboxamide]	217	0.008	0.005					
COc1cnc(C(=O)Nc2ccc3c(c2)[C@@]2(C)N=C(N)C(C)(C)S(=O)(=O)[C@@H]2CCO3)c(C)n1 [Example 22, N-((4aR,11bR)-2-amino-3,3,11b-trimethyl-4,4-dioxido-4a,5,6,11b-tetrahydro-3H-[1]benzoxepino[4,5-b][1,4]thiazin-10-yl)-5-methoxy-3-methyl-2-pyrazinecarboxamide]	1240	0.007	0.017					
COc1cnc(C(=O)Nc2ccc3c(c2)[C@@]2(C)N=C(N)C(C)(C)S(=O)(=O)[C@H]2CCC3)c(C)c1 [Example 32, N-((4aS,11bR)-2-amino-3,3,11b-trimethyl-4,4-dioxido-3,4a,5,6,7,11b-hexahydrobenzo[3,4]cyclohepta[1,2-b][1,4]thiazin-10-yl)-5-methoxy-3-methyl-2-pyridinecarboxamide]	1340	0.021	0.073				> 1200	
CC1(C)C(N)=N[C@]2(C)c3cc(NC(=O)c4ccc(C(F)(F)F)cn4)ccc3OCC[C@H]2S1(=O)=O [Example 165, N-((4aR,11bR)-2-amino-3,3,11b-trimethyl-4,4-dioxido-4a,5,6,11b-tetrahydro-3H-[1]benzoxepino[4,5-b][1,4]thiazin-10-yl)-5-(trifluoromethyl)-2-pyridinecarboxamide]	1070		0.006					0.004
CC1(C)C(N)=N[C@]2(C)c3cc(NC(=O)c4ccc(C#CC5CC5)cn4)ccc3OCC[C@H]2S1(=O)=O [Example 193, N-((4aR,11bR)-2-amino-3,3,11b-trimethyl-4,4-dioxido-4a,5,6,11b-tetrahydro-3H-[1]benzoxepino[4,5-b][1,4]thiazin-10-yl)-5-(cyclopropylethynyl)-2-pyridinecarboxamide]	995		0.004					0.006
C#CCOc1cnc(C(=O)Nc2ccc3c(c2)[C@@]2(C)N=C(N)C(C)(C)S(=O)(=O)[C@@H]2CC(C)(C)O3)cn1 [Example 143, N-((4aR,11bR)-2-Amino-3,3,6,6,11b-pentamethyl-4,4-dioxido-4a,5,6,11b-tetrahydro-3H-benzo[6,7]oxepino[4,5-b][1,4]thiazin-10-yl)-5-(prop-2-yn-1-yloxy)pyrazine-2-carboxamide]				202	0.0005	0.002		
COc1cnc2c(Nc3ccc4c(c3)[C@@]3(C)N=C(N)C(C)(C)S(=O)(=O)[C@@H]3CCO4)ncc(F)c2c1 [Example 177, (4aR,11bR)-N^~10^~-(5-fluoro-3-methoxy-1,7-naphthyridin-8-yl)-3,3,11b-trimethyl-4a,5,6,11b-tetrahydro-3H-[1]benzoxepino[4,5-b][1,4]thiazine-2,10-diamine 4,4-dioxide]	314		0.018					0.111
Cc1cc(OCC(F)(F)F)cnc1C(=O)Nc1ccc2c(c1)[C@@]1(C)N=C(N)C(C)(C)S(=O)(=O)[C@@H]1CCO2 [Example 187, N-((4aR,11bR)-2-amino-3,3,11b-trimethyl-4,4-dioxido-4a,5,6,11b-tetrahydro-3H-[1]benzoxepino[4,5-b][1,4]thiazin-10-yl)-3-methyl-5-(2,2,2-trifluoroethoxy)-2-pyridinecarboxamide]	1240		0.016					0.064
COc1cnc(C(=O)Nc2ccc3c(c2)[C@@]2(C)N=C(N)C(C)(C)S(=O)(=O)[C@@H]2CCC3)c(C)c1 [Example 42, N-((4aR,11bR)-2-amino-3,3,11b-trimethyl-4,4-dioxido-3,4a,5,6,7,11b-hexahydrobenzo[3,4]cyclohepta[1,2-b][1,4]thiazin-10-yl)-5-methoxy-3-methyl-2-pyridinecarboxamide]	2980	0.032	0.067				> 1200	
CC#CCOc1cnc(C(=O)Nc2ccc3c(c2)[C@@]2(C)N=C(N)C(C)(C)S(=O)(=O)[C@@H]2CCO3)cn1 [Example 191, N-((4aR,11bR)-2-amino-3,3,11b-trimethyl-4,4-dioxido-4a,5,6,11b-tetrahydro-3H-[1]benzoxepino[4,5-b][1,4]thiazin-10-yl)-5-(2-butyn-1-yloxy)-2-pyrazinecarboxamide]	624		0.0007					0.0003
CC#C[C@H](C)Oc1cnc2c(Nc3ccc4c(c3)[C@@]3(C)N=C(N)C(C)(C)S(=O)(=O)[C@@H]3CCO4)ncc(F)c2c1 (single isomer, unassigned) [Example 70]	237	0.026	0.003					
C[C@H]1C[C@@H]2[C@](C)(N=C(N)C(C)(C)S2(=O)=O)c2cc(NC(=O)c3ccc(OCc4ncco4)cn3)ccc2O1 [Example 144, N-((4aR,6S,11bR)-2-amino-3,3,6,11b-tetramethyl-4,4-dioxido-4a,5,6,11b-tetrahydro-3H-[1]benzoxepino[4,5-b][1,4]thiazin-10-yl)-5-(1,3-oxazol-2-ylmethoxy)-2-pyridinecarboxamide]				564	0.003	0.004		
COc1ccc(C(=O)Nc2ccc3c(c2)[C@@]2(C)N=C(N)C(C)(C)S(=O)(=O)[C@@H]2CCO3)nc1 [Example 185, N-((4aR,11bR)-2-amino-3,3,11b-trimethyl-4,4-dioxido-4a,5,6,11b-tetrahydro-3H-[1]benzoxepino[4,5-b][1,4]thiazin-10-yl)-5-methoxy-2-pyridinecarboxamide]	516		0.021					0.013
Cc1c(C(=O)Nc2ccc3c(c2)[C@@]2(C)N=C(N)C(C)(C)S(=O)(=O)[C@@H]2CCC3)nc2ccc(Cl)cn12 [Example 49, N-((4aR,11bR)-2-amino-3,3,11b-trimethyl-4,4-dioxido-3,4a,5,6,7,11b-hexahydrobenzo[3,4]cyclohepta[1,2-b][1,4]thiazin-10-yl)-6-chloro-3-methylimidazo[1,2-a]pyridine-2-carboxamide]	394	0.013	0.082					
COc1cnc(C(=O)Nc2ccc3c(c2)[C@@]2(C)N=C(N)C(C)(C)S(=O)(=O)[C@@H]2CCO3)cn1 [Example 166, N-((4aR,11bR)-2-amino-3,3,11b-trimethyl-4,4-dioxido-4a,5,6,11b-tetrahydro-3H-[1]benzoxepino[4,5-b][1,4]thiazin-10-yl)-5-methoxy-2-pyrazinecarboxamide]	1130		0.017					0.0074
